Marks after values point to notes of the source that are not given here.
Assays:
[1] = target: α1-adrenergic receptors; assay: α1-adrenoceptor radioligand binding assay ([3H]-prazosin, rat cortex); conditions: rat cortex tissue, mean ± SEM
Method in brief: (§1)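 Rat cerebral cortex membranes in 50 mM Tris-HCl pH 7.6, with 7–8 compound concentrations in duplicate. Nonspecific binding defined by 10 μM phentolamine for [3H]-prazosin (α1) or 10 μM clonidine for [3H]-clonidine (α2). Filtration and scintillation counting; Ki calculated.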

[2] = tested on: normal ECG in rats; assay: Effect on a normal electrocardiogram in rats; format: in vivo, rat; conditions: 5 mg/kg iv; for HR—heart rate / PQ interval / QRS complex / QTc (Bazzett's formula): mean ± SD; for PQ interval / QRS complex / QTc (Bazzett's formula): in ms (unit assumed)
Protocol: The procedure was performed to exclude the negative effects of the tested compounds on the normal ECG, according to the method described earlier. […] Firstly, animals were anesthetized with thiopental (75 mg/kg ip). […] The influence on PQ, QTc interval, QRS complex, and heart rate was evaluated. The Bazzett’s formula: QTc = QT/√RR was used to calculate QTc. All the studied compounds were administered at a dose of 5 mg/kg.

[3] = tested on: adrenaline-induced arrhythmia model in rats; assay: Therapeutic antiarrhythmic activity in adrenaline-induced arrhythmia; conditions: 5 mg/kg iv immediately after adrenaline 20 µg/kg; number of animals with event
Protocol: The experiments were carried out according to the method described by Szekeres and Papp [71]. The heart rhythm disturbances, such as extrasystoles, conduction blocks, and bradycardia, were induced by iv injection of adrenaline (20 µg/kg) to anesthetized rats (thiopental, 75 mg/kg, ip). […] The Aspel ASCARD apparatus (standard II lead, with a tape of speed 50 mm/s and voltage calibration of 1 mV = 1 cm) was used for the ECG measurements. The ECG was recorded during the first 2 min and in the 5th, 10th, and 15th min after the adrenaline injection (Figure 3B). The lack or decreased amount of extrasystoles, atrioventricular blocks, and bradycardia in the ECG recordings compared to the control group was the criterion of antiarrhythmic activity [72].
Automated ECG waveform analysis was evaluated as described earlier [55], using Eleven Maze software version 0.1 from Eleven Products Sp. z o.o. […] The software, under expert supervision, recognized and classified the heart rhythm irregularities. It also calculated PQ, QRS, QTc, and rate parameters.

[4] = tested on: adrenaline-induced arrhythmia model in rats; assay: Prophylactic antiarrhythmic activity in adrenaline-induced arrhythmia; format: in vivo, rat; conditions: for Blocks / Bradycardia / Extrasystoles / Mortality: number of animals with event; for ED50: prophylactic, iv 15 min before adrenaline 20 μg/kg, confidence limits in brackets (Litchfield and Wilcoxon)
[5] = tested on: pressor response to methoxamine in rats; assay: Influence on blood vasopressor response to methoxamine in rats; format: in vivo, rat; conditions: 5 mg/kg iv, methoxamine 150 μg/kg before and 5 min after compound
Method in brief: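 Anaesthetised (thiopental 75 mg/kg ip) normotensive Wistar rats, carotid artery cannulated. Pressor response to methoxamine (150 µg/kg, iv) recorded before and 5 min after test compound, given at its lowest hypotensive dose, after 15-min stabilisation.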

[6] = tested on: normotensive rats; assay: Influence on blood pressure in the normotensive rats; format: in vivo, rat; conditions: for DBP—diastolic blood pressure / SBP—systolic blood pressure: mean ± SD
Method in brief: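 Anaesthetised (thiopental 75 mg/kg ip) normotensive Wistar rats with right carotid artery cannulated for direct pressure recording. Compounds given iv after 15 min stabilisation. Systolic and diastolic blood pressure were monitored.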

[7] = tested on: calcium chloride-induced arrhythmia model in rats; assay: Prophylactic antiarrhythmic activity in calcium chloride-induced arrhythmia; format: in vivo, rat; conditions: 5 mg/kg iv 15 min before calcium chloride 140 mg/kg; number of animals with event
[8] = target: α2-adrenergic receptors; assay: α2-adrenoceptor radioligand binding assay ([3H]-clonidine, rat cortex); conditions: rat cortex tissue, mean ± SEM, n.a. = did not bind at 10^−5 M
Method in brief: as §1

[9] = 0 min (prior to administration)
[10] = 0.25 mg/kg iv 15 min before adrenaline 20 μg/kg
[11] = 0.5 mg/kg iv 15 min before adrenaline 20 μg/kg
[12] = 1 mg/kg iv 15 min before adrenaline 20 μg/kg
[13] = 2.5 mg/kg iv, 0 min (before administration)
[14] = 5.0 mg/kg iv, 0 min (before administration)

Cl.NC(=O)c1ccccc1OCCCCCCN1CCN(c2cccc(Cl)c2)CC1 [JJGW03, 2-{6-[4-(3-chlorophenyl)piperazin-1-ylo]hexoxy}benzamide hydrochloride]
Adrenergic Receptors—pKi α1 [1]: 8.11 ± 0.01
effect on the heart rate during the ECG recording [2]: did not affect the heart rate
HR—heart rate [2, 9]: 286.6 ± 45.7
PQ interval [2, 9]: 41.6 ± 2.3
QRS complex [2, 9]: 39.6 ± 4.7
QTc (Bazzett's formula) [2, 9]: 177.6 ± 12.0
HR—heart rate ([2]; 5 min): 289.1 ± 20.2
PQ interval ([2]; 5 min): 41.4 ± 1.6
QRS complex ([2]; 5 min): 39.3 ± 3.9
QTc (Bazzett's formula) ([2]; 5 min): 188.7 ± 16.3
HR—heart rate ([2]; 10 min): 279.9 ± 15.7
PQ interval ([2]; 10 min): 40.2 ± 1.7
QRS complex ([2]; 10 min): 40.8 ± 7.1
QTc (Bazzett's formula) ([2]; 10 min): 174.8 ± 7.3
HR—heart rate ([2]; 15 min): 271.9 ± 18.2
PQ interval ([2]; 15 min): 40.0 ± 0.5
QRS complex ([2]; 15 min): 40.4 ± 5.2
QTc (Bazzett's formula) ([2]; 15 min): 178.1 ± 15.0
Blocks [3]: 3/5
Bradycardia [3]: 1/5
Mortality [3]: 0/5
Blocks [4, 10]: 5/5
Bradycardia [4, 10]: 5/5
Extrasystoles [4, 10]: 5/5
Mortality [4, 10]: 4/5
Blocks [4, 11]: 5/5
Bradycardia [4, 11]: 4/5
Extrasystoles [4, 11]: 4/5
Mortality [4, 11]: 4/5
Blocks [4, 12]: 4/5
Bradycardia [4, 12]: 1/5
Extrasystoles [4, 12]: 4/5
Mortality [4, 12]: 0/5
ED50 [4]: 0.36 (0.08–1.56) mg/kg
attenuation of the methoxamine pressor response [5]: 99%
DBP—diastolic blood pressure [6, 13]: 89.3 ± 15.6 mmHg
SBP—systolic blood pressure [6, 13]: 123.8 ± 17.4 mmHg
DBP—diastolic blood pressure ([6]; 2.5 mg/kg iv, 5 min): 83.3 ± 12.8 mmHg
SBP—systolic blood pressure ([6]; 2.5 mg/kg iv, 5 min): 112.5 ± 13.8 mmHg
DBP—diastolic blood pressure ([6]; 2.5 mg/kg iv, 10 min): 84.8 ± 14.7 mmHg
SBP—systolic blood pressure ([6]; 2.5 mg/kg iv, 10 min): 109.8 ± 13.5 mmHg
DBP—diastolic blood pressure ([6]; 2.5 mg/kg iv, 20 min): 86.0 ± 15.8 mmHg
SBP—systolic blood pressure ([6]; 2.5 mg/kg iv, 20 min): 108.8 ± 15.6 mmHg
DBP—diastolic blood pressure ([6]; 2.5 mg/kg iv, 30 min): 85.5 ± 14.7 mmHg
SBP—systolic blood pressure ([6]; 2.5 mg/kg iv, 30 min): 111.8 ± 20.5 mmHg
DBP—diastolic blood pressure ([6]; 2.5 mg/kg iv, 40 min): 83.7 ± 15.6 mmHg
SBP—systolic blood pressure ([6]; 2.5 mg/kg iv, 40 min): 111.2 ± 22.3 mmHg
DBP—diastolic blood pressure ([6]; 2.5 mg/kg iv, 50 min): 81.2 ± 15.0 mmHg
SBP—systolic blood pressure ([6]; 2.5 mg/kg iv, 50 min): 107.7 ± 19.7 mmHg
DBP—diastolic blood pressure ([6]; 2.5 mg/kg iv, 60 min): 79.5 ± 15.4 mmHg
SBP—systolic blood pressure ([6]; 2.5 mg/kg iv, 60 min): 109.2 ± 21.9 mmHg
DBP—diastolic blood pressure [6, 14]: 101.5 ± 6.1 mmHg
SBP—systolic blood pressure [6, 14]: 128.5 ± 8.6 mmHg
decrease of the diastolic blood pressure ([6]; 5 mg/kg iv, 5th min after administration): 18%
decrease of the diastolic blood pressure ([6]; 5 mg/kg iv, 10th min after administration): 20%
DBP—diastolic blood pressure ([6]; 5.0 mg/kg iv, 5 min): 83.2 ± 5.0 ^a mmHg
SBP—systolic blood pressure ([6]; 5.0 mg/kg iv, 5 min): 108.0 ± 6.6 ^d mmHg
DBP—diastolic blood pressure ([6]; 5.0 mg/kg iv, 10 min): 81.2 ± 4.0 ^a mmHg
SBP—systolic blood pressure ([6]; 5.0 mg/kg iv, 10 min): 104.3 ± 6.3 ^d mmHg
DBP—diastolic blood pressure ([6]; 5.0 mg/kg iv, 20 min): 82.0 ± 4.2 mmHg
SBP—systolic blood pressure ([6]; 5.0 mg/kg iv, 20 min): 101.3 ± 4.5 ^d mmHg
DBP—diastolic blood pressure ([6]; 5.0 mg/kg iv, 30 min): 83.5 ± 4.3 mmHg
SBP—systolic blood pressure ([6]; 5.0 mg/kg iv, 30 min): 102.3 ± 6.9 ^d mmHg
DBP—diastolic blood pressure ([6]; 5.0 mg/kg iv, 40 min): 85.5 ± 5.8 mmHg
SBP—systolic blood pressure ([6]; 5.0 mg/kg iv, 40 min): 104.3 ± 3.9^b mmHg
DBP—diastolic blood pressure ([6]; 5.0 mg/kg iv, 50 min): 86.7 ± 6.0 mmHg
SBP—systolic blood pressure ([6]; 5.0 mg/kg iv, 50 min): 106.0 ± 7.9 ^c mmHg
DBP—diastolic blood pressure ([6]; 5.0 mg/kg iv, 60 min): 87.5 ± 6.3 mmHg
SBP—systolic blood pressure ([6]; 5.0 mg/kg iv, 60 min): 107.3 ± 6.1 ^b mmHg
decrease of the systolic blood pressure ([6]; 5 mg/kg iv, from the 5th to 60th min after administration): 16–21%
Blocks [7]: 6/6
Bradycardia [7]: 6/6
Extrasystoles [7]: 6/6
Fibrillations [7]: 4/6
Mortality [7]: 5/6
Adrenergic Receptors—pKi α2 [8]: 5.76 ± 0.02

COc1ccccc1N1CCN(Cc2ccc(COc3ccccc3C(N)=O)cc2)CC1.Cl [JJGW12, 2-[(4-{[4-(2-metoxyphenyl)piperazin-1-ylo]methyl}phenyl)metoxy}benzamide hydrochloride]
Adrenergic Receptors—pKi α1 [1]: 7.41 ± 0.01
effect on the heart rate during the ECG recording [2]: did not affect the heart rate
HR—heart rate [2, 9]: 254.6 ± 41.2
PQ interval [2, 9]: 44.1 ± 6.2
QRS complex [2, 9]: 41.9 ± 2.1
QTc (Bazzett's formula) [2, 9]: 190.8 ± 15.2
HR—heart rate ([2]; 5 min): 256.8 ± 47.1
PQ interval ([2]; 5 min): 43.6 ± 1.2
QRS complex ([2]; 5 min): 44.5 ± 3.6
QTc (Bazzett's formula) ([2]; 5 min): 194.3 ± 16.8
HR—heart rate ([2]; 10 min): 255.2 ± 53.6
PQ interval ([2]; 10 min): 45.9 ± 2.4
QRS complex ([2]; 10 min): 44.2 ± 2.3
QTc (Bazzett's formula) ([2]; 10 min): 190.3 ± 25.9
HR—heart rate ([2]; 15 min): 250.2 ± 51.5
PQ interval ([2]; 15 min): 45.5 ± 3.1
QRS complex ([2]; 15 min): 45.2 ± 5.9
QTc (Bazzett's formula) ([2]; 15 min): 195.8 ± 25.5
Blocks [3]: 6/6
Bradycardia [3]: 6/6
Mortality [3]: 6/6
Blocks [4, 10]: 6/6
Bradycardia [4, 10]: 5/6
Extrasystoles [4, 10]: 6/6
Mortality [4, 10]: 3/6
Blocks [4, 11]: 4/5
Bradycardia [4, 11]: 3/5
Extrasystoles [4, 11]: 4/5
Mortality [4, 11]: 0/5
Blocks [4, 12]: 3/5
Bradycardia [4, 12]: 1/5
Extrasystoles [4, 12]: 3/5
Mortality [4, 12]: 0/5
ED50 [4]: 0.44 (0.10–1.98) mg/kg
attenuation of the methoxamine pressor response [5]: 97%
DBP—diastolic blood pressure [6, 13]: 95.0 ± 16.0 mmHg
SBP—systolic blood pressure [6, 13]: 122.2 ± 15.6 mmHg
DBP—diastolic blood pressure ([6]; 2.5 mg/kg iv, 5 min): 94.5 ± 16.5 mmHg
SBP—systolic blood pressure ([6]; 2.5 mg/kg iv, 5 min): 120.7 ± 13.8 mmHg
DBP—diastolic blood pressure ([6]; 2.5 mg/kg iv, 10 min): 87.5 ± 23.0 mmHg
SBP—systolic blood pressure ([6]; 2.5 mg/kg iv, 10 min): 114.5 ± 10.6 mmHg
DBP—diastolic blood pressure ([6]; 2.5 mg/kg iv, 20 min): 83.5 ± 22.4 mmHg
SBP—systolic blood pressure ([6]; 2.5 mg/kg iv, 20 min): 109.7 ± 9.3 mmHg
DBP—diastolic blood pressure ([6]; 2.5 mg/kg iv, 30 min): 84.0 ± 21.4 mmHg
SBP—systolic blood pressure ([6]; 2.5 mg/kg iv, 30 min): 106.5 ± 13.1 mmHg
DBP—diastolic blood pressure ([6]; 2.5 mg/kg iv, 40 min): 87.8 ± 16.7 mmHg
SBP—systolic blood pressure ([6]; 2.5 mg/kg iv, 40 min): 108.8 ± 11.8 mmHg
DBP—diastolic blood pressure ([6]; 2.5 mg/kg iv, 50 min): 89.3 ± 13.4 mmHg
SBP—systolic blood pressure ([6]; 2.5 mg/kg iv, 50 min): 110.0 ± 7.5 mmHg
DBP—diastolic blood pressure ([6]; 2.5 mg/kg iv, 60 min): 89.2 ± 13.9 mmHg
SBP—systolic blood pressure ([6]; 2.5 mg/kg iv, 60 min): 110.5 ± 8.1 mmHg
DBP—diastolic blood pressure [6, 14]: 95.7 ± 6.0 mmHg
SBP—systolic blood pressure [6, 14]: 122.5 ± 11.9 mmHg
decrease of the systolic blood pressure ([6]; 5 mg/kg iv, 50th min since administration): 13%
DBP—diastolic blood pressure ([6]; 5.0 mg/kg iv, 5 min): 87.7 ± 7.0 mmHg
SBP—systolic blood pressure ([6]; 5.0 mg/kg iv, 5 min): 120.7 ± 9.8 mmHg
DBP—diastolic blood pressure ([6]; 5.0 mg/kg iv, 10 min): 89.3 ± 8.1 mmHg
SBP—systolic blood pressure ([6]; 5.0 mg/kg iv, 10 min): 114.5 ± 9.1 mmHg
DBP—diastolic blood pressure ([6]; 5.0 mg/kg iv, 20 min): 88.5 ± 9.0 mmHg
SBP—systolic blood pressure ([6]; 5.0 mg/kg iv, 20 min): 112.8 ± 10.0 mmHg
DBP—diastolic blood pressure ([6]; 5.0 mg/kg iv, 30 min): 87.8 ± 8.8 mmHg
SBP—systolic blood pressure ([6]; 5.0 mg/kg iv, 30 min): 111.5 ± 10.4 mmHg
DBP—diastolic blood pressure ([6]; 5.0 mg/kg iv, 40 min): 87.8 ± 8.7 mmHg
SBP—systolic blood pressure ([6]; 5.0 mg/kg iv, 40 min): 113.0 ± 11.9 mmHg
DBP—diastolic blood pressure ([6]; 5.0 mg/kg iv, 50 min): 85.8 ± 8.1 mmHg
SBP—systolic blood pressure ([6]; 5.0 mg/kg iv, 50 min): 107.0 ± 12.7 ^a mmHg
DBP—diastolic blood pressure ([6]; 5.0 mg/kg iv, 60 min): 86.7 ± 10.7 mmHg
SBP—systolic blood pressure ([6]; 5.0 mg/kg iv, 60 min): 109.8 ± 12.2 mmHg
influence on the diastolic blood pressure ([6]; 5 mg/kg iv, normotensive rats): did not influence the diastolic blood pressure
Blocks [7]: 6/6
Bradycardia [7]: 6/6
Extrasystoles [7]: 6/6
Fibrillations [7]: 4/6
Mortality [7]: 6/6
Adrenergic Receptors—pKi α2 [8]: 6.11 ± 0.01
